Columns and labels:
Format in all cases: cell-based, human
mir-675-5p [1] = assay: ddPCR of mir-675-5p in drug-treated DUX4-transfected HEK293 cells; details: vs ethanol vehicle
Method: (§1) Digital Droplet PCR (ddPCR). For mir-675 and mi405 constructs, RNA extraction was carried out as described for QPCR above. For cDNA synthesis, the TaqMan advanced cDNA synthesis kit (Thermo Fisher) was used and cDNA was prepared by following manufacturer's instructions. ddPCR was carried out using 1× ddPCR Supermix for probes (No dUTP) (Bio-Rad), 1× commercially available mir-675 advanced TaqMan probe, or a custom made mi405 advanced TaqMan probe (ThermoFisher) and 50 ng of cDNA. For DUX4 cDNA synthesis, the High-Capacity cDNA Reverse Transcription Kit (Applied Biosystems) was used according to manufacturer's instructions. Within the same cDNA reaction, 1×RT random hexamer primers and 25 pmoles of the Oligo(dT) primer were used to generate cDNA for DUX4 and DUX4-responsive biomarkers and for mouse Rpl13A, used as a reference gene. To quantify DUX4, the ddPCR reaction mixture (20 μL) contained 1× ddPCR Evagreen Supermix (Bio-Rad), 1 μM of forward and reverse DUX4 primers (Sharma et al., J Genet Syndr Gene Ther 2016 August; 7(4):303. doi: 10.4172/2157-7412.1000303. Epub 2016 Aug. 8), and 50 ng of cDNA. To quantify Rpl13A and DUX4-responsive biomarkers (Trim36 and Wfdc3), the 1× ddPCR Supermix for probes (No dUTP) and TaqMan specific probes were used for each of the genes. Droplets were generated using the Automatic Droplet generator QX200 AutoDG (Bio-Rad), the reactions were amplified in a C1000 Touch™ Thermal Cycler with 96-Deep Well Reaction Module (Bio-Rad). Cycling conditions were set up following the QX200 ddPCR Evagreen Supermix protocol. All assays are compatible with an annealing temperature of 58° C. Droplets were then read using the QX200 droplet reader (Bio-Rad). Finally, data were analyzed using the QuantaSoft analysis software (Bio-Rad). For quantification, each reaction of 20 μL was estimated to give at least 10,000 acceptable droplets.
(§2) Three small molecule candidates (β-estradiol, a combination of β-estradiol+medroxyprogesterone acetate (MPA), and melatonin) were tested for their ability to upregulate mir-675-5p in HEK293 cells and in human myotubes. HEK293 cells normally express minimal amounts of mir-675. […] 24 hours after treatment, mir-675-5p expression was measured by Droplet Digital PCR (ddPCR).
In FIG. 28, β-estradiol, medroxyprogesterone acetate (MPA) and melatonin increased mir-675 expression and reduced the expression of DUX4 and DUX4-induced biomarker TRIM43 in HEK293 cells. […] The effects of these drugs were evaluated by comparison to ethanol (vehicle)-treated cells. […] The quantification (percent change) of gene expression from HEK293 cells treated with β-estradiol, β-estradiol+MPA, or melatonin was measured using droplet digital PCR (ddPCR) and is reported in Table 3 set out below. […]

TRIM43 [2] = assay: ddPCR of TRIM43 in drug-treated DUX4-transfected HEK293 cells; details: 20 μM; HEK293; vs ethanol vehicle
Method: as §1
Three small molecule candidates (β-estradiol, a combination of β-estradiol+medroxyprogesterone acetate (MPA), and melatonin) were tested for their ability to upregulate mir-675-5p in HEK293 cells and in human myotubes. HEK293 cells normally express minimal amounts of mir-675. HEK293 cells were treated with (1) 20 μM β-estradiol alone; (2) 10 μM or 20 μM β-estradiol+MPA; or (3) 20 μM or 40 μM melatonin. 24 hours after treatment, mir-675-5p expression was measured by Droplet Digital PCR (ddPCR).
In FIG. 28, β-estradiol, medroxyprogesterone acetate (MPA) and melatonin increased mir-675 expression and reduced the expression of DUX4 and DUX4-induced biomarker TRIM43 in HEK293 cells. Droplet Digital PCR (ddPCR) was carried out to measure mir-675-5p, DUX4 and TRIM43 levels. HEK293 cells were transfected with DUX4 and were treated with two drugs individually (i.e., β-estradiol and melatonin) or with a combination of β-estradiol and MPA at 10, 20 or 40 μM at the time of transfection. The effects of these drugs were evaluated by comparison to ethanol (vehicle)-treated cells. Numbers correspond to n=3 independent experiments (ANOVA, P<0.0001). The quantification (percent change) of gene expression from HEK293 cells treated with β-estradiol, β-estradiol+MPA, or melatonin was measured using droplet digital PCR (ddPCR) and is reported in Table 3 set out below. Anti-mir-675 is an antagomiR targeting the mature sequence of mir-675-5p, inhibiting its function as inhibitor of DUX4 gene expression. CMV.DUX4-mir-675Res is an expression plasmid encoding a DUX4 mutant sequence. […]

mir-675-5p [3] = assay: ddPCR of mir-675-5p in drug-treated FSHD myotubes; details: 20 μM
Text: (§3) Primary Cell Culture. 15A, 17A sand 18A FSHD human myoblasts and 15V control human myoblasts were provided by the UMMS Wellstone Center for FSHD and have been previously characterized [Jones et al., Hum. Mol. Genet. 21: 4419-4430 (2012)]. Previously immortalized 15A cell lines have a single 4qA permissive allele. […] 15V cell lines have two 4qB non-permissive alleles. Cells were propagated by feeding them every two days with new LHCN medium [4:1 DMEM:Medium 199 (Gibco) supplemented with 15% characterized FBS (Corning), 0.02 M HEPES (Thermo Fisher), 0.03 μg/mL ZnSO4 (Honeywell Fluka), 1.4 μg/mL Vitamin B12 (Sigma-Aldrich), 0.055 μg/mL dexamethasone (Sigma-Aldrich), 1% antibiotics/antimycotics (Gibco), 2.5 ng/mL hepatocyte growth factor (Millipore) and 10 ng/mL basic fibroblast growth factor (Millipore)]. For differentiation, myoblasts were switched to a differentiation medium [4:1 DMEM: Medium 199 (Gibco) supplemented with 15% KnockOut Serum Replacement (ThermoFisher Scientific), 2 mM L-glutamine (Gibco), 1% antibiotics/antimycotics (Gibco), 1 mM sodium pyruvate (Gibco) and 20 mM HEPES (ThermoFisher Scientific)] when cells were at >90% confluency. Before adding differentiation medium, cells were washed with PBS (Gibco). Cells were seeded with new differentiation medium every three days for up to 7 days. To detach cells, TrypLE™ Express, phenol red (ThermoFisher Scientific) was used.
as §1
(§4) Next, the effects of the three treatment regimens were tested on the expression of endogenous mir-675-5p, DUX4 and TRIM43 in 15A, 17A and 18A FSHD differentiated muscle cell lines (myotubes) (FIG. 29 and Table 4). […] Mol. Genet. 21: 4419-30 (2012)]. In FIG. 29, β-estradiol, medroxyprogesterone acetate (MPA) and melatonin increased mir-675 expression and reduced the expression of DUX4 and the DUX4-induced biomarker TRIM43 in three FSHD affected myotube lines. Droplet digital PCR (ddPCR) was used to measure mir-675-5p, DUX4 and TRIM43 levels in 15A (A), 17A (B) and 18A (C) FSHD affected myotubes five days after differentiation. […]

TRIM43 [4] = assay: ddPCR of TRIM43 in drug-treated FSHD myotubes; details: 20 μM
Text: as §3, §1, §4

DUX4 [5] = assay: ddPCR of DUX4 in drug-treated FSHD myotubes; details: 20 μM
Text: as §3, §1, §4

DUX4 [6] = assay: ddPCR of transfected DUX4 in drug-treated HEK293 cells; details: 20 μM, vs ethanol vehicle
Method: as §1, with “Cycling conditions were set up following the QX200 ddPCR Evagreen Supermix protocol. All assays are compatible with an annealing temperature of 58° C.” left out
as §2, with “myotubes.” for “myotubes. HEK293 cells normally express minimal amounts of mir-675.”, “(ddPCR). […]” for “(ddPCR).”

C[C@]12CC[C@@H]3c4ccc(O)cc4CC[C@H]3[C@@H]1CC[C@@H]2O [β-estradiol]
mir-675-5p (% increase) (mir-675-5p [1]; 10 μM): 22 ± 06% | mir-675-5p (% increase) (mir-675-5p [1]; 20 μM): 92 ± 34% | TRIM43 (% decrease) (TRIM43 [2]): significant decrease | mir-675-5p (% increase) (mir-675-5p [3]; 15A 5DD myotubes, N = 6): 47 ± 11 | *, % | mir-675-5p (% increase) (mir-675-5p [3]; 17A 5DD myotubes, N = 3): 38 ± 09 | *, % | mir-675-5p (% increase) (mir-675-5p [3]; 18A 5DD myotubes, N = 3): 382 ± 44 | ***, % | TRIM43 (% decrease) (TRIM43 [4]; 15A 5DD myotubes, N = 6): 46 ± 40 | NS, % | TRIM43 (% decrease) (TRIM43 [4]; 17A 5DD myotubes, N = 3): 31 ± 12 | *, % | TRIM43 (% decrease) (TRIM43 [4]; 18A 5DD myotubes, N = 3): 57 ± 07 | ** , % | DUX4 (% decrease) (DUX4 [5]; 15A 5DD myotubes, N = 6): 70 ± 38 | *, % | DUX4 (% decrease) (DUX4 [5]; 17A 5DD myotubes, N = 3): 63 ± 19 | *, % | DUX4 (% decrease) (DUX4 [5]; 18A 5DD myotubes, N = 3): 49 ± 19 | *, % | DUX4 (% decrease) (DUX4 [6]): significant decrease

From patent US20240093191A1, “COMPOSITIONS AND METHODS FOR TREATING DISEASE ASSOCIATED WITH DUX4 OVEREXPRESSION” (RESEARCH INSTITUTE AT NATIONWIDE CHILDREN'S HOSPITAL, priority 2021, published 2024)
